{
  "source": "patent US20260174788A1",
  "about": "(priority 2023, published 2026)",
  "key": {"[1]": {"assay": "Pharmacokinetics of gemcitabine and dFdU in urine and plasma after TAR-200", "settings": "for Mean cumulative excreted amount in urine as percentage of the administered dose: 0-168 hours after TAR-200; for Tmax: human, urine, other: intravesical, 225 mg gemcitabine"}, "[2]": {"tested_on": "HR NMIBC (CIS with or without papillary disease) unresponsive to prior intravesical BCG therapy", "design": "species or system human", "settings": "in vivo"}},
  "data": [
    {"compound": "O=c1ccn([C@@H]2O[C@H](CO)[C@@H](O)C2(F)F)c(=O)[nH]1", "note": "[dFdU, 2′,2′ difluorodeoxyuridine]", "values": [
      {"measurement": "Mean cumulative excreted amount in urine as percentage of the administered dose", "setting": "[1]", "result": "11.1-23.3%"},
      {"measurement": "Tmax", "setting": "[1]", "result": "72 to 144", "unit": "h"}
    ]},
    {"compound": "Nc1ccn([C@@H]2O[C@H](CO)[C@@H](O)C2(F)F)c(=O)n1", "note": "[gemcitabine]", "values": [
      {"measurement": "12-month CR rate, all TAR-200 treated patients", "setting": "[2]", "result": 64, "unit": "%"},
      {"measurement": "Responders who achieved CR at the 12 weeks disease assessment", "setting": "[2]", "result": "47 out of 48"},
      {"measurement": "effectiveness versus existing standard of care", "setting": "[2]", "result": "nearly two times as effective"},
      {"measurement": "Mean cumulative excreted amount in urine as percentage of the administered dose", "setting": "[1]", "result": "36.2-53.8%"},
      {"measurement": "Mean gemcitabine concentration in urine versus tumoricidal concentration", "setting": "[1]; after TAR-200 (225 mg gemcitabine)", "result": "> 3", "unit": "µg/mL"},
      {"measurement": "Tmax", "setting": "[1]", "result": "48 to 96", "unit": "h"}
    ]}
  ]
}
